According to patent US10138237B2, “1,2,4-triazolo[4,3-a]pyridine compounds and their use as positive allosteric modulators of mGluR2 receptors” (Janssen Pharmaceutica NV, priority 2014, dated 2018):
Values belong to the compound of their own block, whether it stands above or below them.

What was measured:
[1] = biological target: T1, human mGlu2 receptor (Homo sapiens, UniProt Q14416); experiment: [35S]GTPγS binding assay, hmGluR2 PAM; assay type: biochemical; details: in presence of EC20 glutamate; for GTPγS - hmGluR2 PAM Emax / Emax: maximal % effect relative to the control glutamate response; for EC50: membranes from CHO cells with human mGlu2 receptor, -log EC50 in M, read-out: GTPγS - hmGluR2 PAM pEC50 (converted)
T1 construct: expressed in transfected cells; host or cells: CHO cells (membrane preparation)
T1 sequence (Q14416 19-872): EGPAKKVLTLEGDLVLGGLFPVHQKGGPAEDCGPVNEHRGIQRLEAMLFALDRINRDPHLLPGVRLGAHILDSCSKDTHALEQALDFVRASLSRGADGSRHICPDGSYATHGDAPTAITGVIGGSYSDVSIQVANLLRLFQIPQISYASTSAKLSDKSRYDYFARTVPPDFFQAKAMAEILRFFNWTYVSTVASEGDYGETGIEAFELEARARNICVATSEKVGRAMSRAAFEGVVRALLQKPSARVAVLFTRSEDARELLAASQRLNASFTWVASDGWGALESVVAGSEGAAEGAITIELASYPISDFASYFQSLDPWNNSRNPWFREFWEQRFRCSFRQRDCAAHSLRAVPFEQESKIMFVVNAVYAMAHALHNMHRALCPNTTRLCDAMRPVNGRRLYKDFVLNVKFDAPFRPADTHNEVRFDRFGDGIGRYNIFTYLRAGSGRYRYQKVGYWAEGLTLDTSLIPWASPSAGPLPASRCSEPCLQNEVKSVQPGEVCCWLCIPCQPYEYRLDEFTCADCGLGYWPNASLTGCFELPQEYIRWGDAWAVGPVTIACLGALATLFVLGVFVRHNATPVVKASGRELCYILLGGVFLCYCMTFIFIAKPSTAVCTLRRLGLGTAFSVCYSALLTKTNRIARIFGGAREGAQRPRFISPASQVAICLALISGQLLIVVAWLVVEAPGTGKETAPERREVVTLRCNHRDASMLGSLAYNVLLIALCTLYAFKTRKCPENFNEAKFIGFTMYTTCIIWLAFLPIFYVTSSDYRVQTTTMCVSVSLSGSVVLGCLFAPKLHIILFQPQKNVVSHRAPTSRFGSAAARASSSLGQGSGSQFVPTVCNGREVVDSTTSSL
Description: The compounds provided in the present invention are positive allosteric modulators of mGluR2. These compounds appear to potentiate glutamate responses by binding to an allosteric site other than the glutamate binding site. The response of mGluR2 to a concentration of glutamate is increased when compounds of Formula (I) are present. Compounds of Formula (I) are expected to have their effect substantially at mGluR2 by virtue of their ability to enhance the function of the receptor. The effects of positive allosteric modulators tested at mGluR2 using the [^35S]GTPγS binding assay method described below and which is suitable for the identification of such compounds, and more particularly the compounds according to Formula (I), are shown in Table 8.
[^35S]GTPγS Binding Assay
The [^35S]GTPγS binding assay is a functional membrane-based assay used to study G-protein coupled receptor (GPCR) function whereby incorporation of a non-hydrolysable form of GTP, [^35S]GTPγS (guanosine 5′-triphosphate, labelled with […] ^35S), is measured. The G-protein α subunit catalyzes the exchange of guanosine 5′-diphosphate (GDP) by guanosine triphosphate (GTP) and on activation of the GPCR by an agonist, [^35S]GTPγS, becomes incorporated and cannot be cleaved to continue the exchange cycle (Harper (1998) Current Protocols in Pharmacology 2.6.1-10, John Wiley & Sons, Inc.). […] Here we describe the use of the [^35S]GTPγS binding assay using membranes from cells transfected with the human mGlu2 receptor and adapted from Schaffhauser et al. (Molecular Pharmacology, 2003, […]) for the detection of the positive allosteric modulation (PAM) properties of the compounds of this invention.
CHO-cells were cultured to pre-confluence and stimulated with 5 mM butyrate for 24 h. Cells were then collected by scraping in PBS and cell suspension was centrifuged (10 min at 4000 RPM in benchtop centrifuge). Supernatant was discarded and pellet gently resuspended in 50 mM Tris-HCl, pH 7.4 by mixing with a vortex and pipetting up and down. The suspension was centrifuged at 16,000 RPM (Sorvall RC-5C plus rotor SS-34) for 10 minutes and the supernatant discarded. The pellet was homogenized in 5 mM Tris-HCl, pH 7.4 using an ultra-turrax homogenizer and centrifuged again (18,000 RPM, 20 min, 4° C.). The final pellet was resuspended in 50 mM Tris-HCl, pH 7.4 and stored at −80° C. in appropriate aliquots before use. Protein concentration was determined by the Bradford method (Bio-Rad, USA) with bovine serum albumin as standard.
Measurement of mGluR2 positive allosteric modulatory activity of test compounds was performed as follows. Test compounds and glutamate were diluted in assay buffer containing 10 mM HEPES acid, 10 mM HEPES salt, pH 7.4, 100 mM NaCl, 3 mM MgCl2 and 10 μM GDP. Human mGlu2 receptor-containing membranes were thawed on ice and diluted in assay buffer supplemented with 14 μg/ml saponin. Membranes were pre-incubated with compound alone or together with a predefined (˜EC20) concentration of glutamate (PAM assay) for 30 min at 30° C. After addition of [^35S]GTPγS (f.c. 0.1 nM), assay mixtures were shaken briefly and further incubated to allow [^35S]GTPγS incorporation on activation (30 minutes, 30° C.). Final assay mixtures contained 7 μg of membrane protein in 10 mM HEPES acid, 10 mM HEPES salt, pH 7.4, 100 mM NaCl, 3 mM MgCl2, 10 μM GDP and 2 μg/ml saponin. Total reaction volume was 200 μl. Reactions were terminated by rapid filtration through Unifilter-96 GF/B plates (Perkin Elmer, Massachusetts, USA) using a 96-well filtermate universal harvester. Filters were washed 6 times with ice-cold 10 mM NaH2PO4/10 mM Na2HPO4, pH 7.4. Filters were then air-dried, and 40 μl of liquid scintillation cocktail (Microscint-O) was added to each well. Membrane-bound radioactivity was counted in a Microplate Scintillation and Luminescence Counter from Perkin Elmer. […]

[2] = test system: 6 Hz (32 mA, 3 s, corneal) limbic seizure in mice; experiment: Anticonvulsant studies - 6 Hz test in mice; assay type: in vivo; details: Mus musculus, Score ≤ 2 (protected), 32 mA for 3 s
Experimental: Anticonvulsant Studies—6 Hz Test in Mice
At a predefined interval after drug treatment (standard: 0.5 h). individual mice were challenged with sufficient current (32 mA for 3 s; delivered through corneal electrodes) to elicit a limbic seizure. The manifestations of the “psychomotor” seizure were first described by Toman (Toman, J. E. P., 1951, “Neuropharmacologic considerations in psychic seizures” Neurology, 1, 444-460; Toman, J. E. P., Evertett, G. M., Richards, R. K., 1952, “The search for new drugs against epilepsy” Tex. Rep. Biol. Med. 10, 96-104). […] This may be characterized by immobility, or a lack of awareness regarding its environment as it goes directly into behaviours 2 and 3 (forepaw clonus or facial automatisms). The stun posture is most often upright, but the mouse may also fall on its side during a seizure; the fore limbs are often crossed and the hind limbs are spread wide apart. The “stunning” may occasionally be preceded by a few seconds of running with a rolling gait. 2) Forepaw clonus or automatism: usually resembles the mouse repeatedly raising its forepaw and then stomping it onto the ground. This is generally repeated several times, but must be repeated at least twice to be considered present. 3) Facial automatism: in the mouse best resembles jaw chomping or air biting; this also must occur at least twice to be considered present. 4) Elevated or Straub tail, which must be elevated to greater than a 45 degree angle to be considered present. The duration of the seizure varies from 5 to 75 s; at the end of the seizure, the animal rather suddenly resumes normal locomotion and exploratory behaviour. Each of the four above mentioned behaviours was scored as either absent (0) or present (1).

[3] = test system: major depressive disorder with anxiety symptoms; details: adjunctive administration; adults with major depressive disorder with anxiety symptoms; cited from earlier work
[4] = test system: smoking cessation-induced deficits; details: versus placebo; cited from earlier work
[5] = test system: S-ketamine-induced negative symptoms; details: healthy volunteers and patients with predominant negative symptoms of schizophrenia; cited from earlier work

- GTPγS - hmGluR2 PAM Emax [1]: 148.44%
- EC50 [1]: 214 nM
- melting point: 167.64 °C
Compound: CCOc1nc(N2CCC(c3ccn4c(CC5CC5)nnc4c3C(F)(F)F)C2)ncc1Cl (single isomer, unassigned) [Co. No. 1a, 7-[(3*R)-1-(5-chloro-4-ethoxy-pyrimidin-2-yl)pyrrolidin-3-yl]-3-(cyclopropylmethyl)-8-(trifluoromethyl)-[1,2,4]triazolo[4,3-a]pyridine]

- GTPγS - hmGluR2 PAM Emax [1]: 277.87%
- EC50 [1]: 3.8 nM
- melting point: 168.29 °C
Compound: CCOc1nc(N2CCC(c3ccn4c(CC5CC5)nnc4c3C(F)(F)F)C2)ncc1Cl (single isomer, unassigned) [Co. No. 1b, 7-[(3*S)-1-(5-chloro-4-ethoxy-pyrimidin-2-yl)pyrrolidin-3-yl]-3-(cyclopropylmethyl)-8-(trifluoromethyl)-[1,2,4]triazolo[4,3-a]pyridine]
- ED50 ([2]; route PO): 20 mg/kg
- ED50 ([2]; route SC): 3.79 mg/kg

- GTPγS - hmGluR2 PAM Emax ([1]; listed as 2a): 226.905%
- EC50 [1]: 2090 nM
Compound: CCOCc1nnc2c(C(F)(F)F)c(C3CCN(c4ncc(Cl)c(OCC)n4)C3)ccn12 (single isomer, unassigned) [Co. No. 2a, 7-[(3*R)-1-(5-chloro-4-ethoxy-pyrimidin-2-yl)pyrrolidin-3-yl]-3-(ethoxymethyl)-8-(trifluoromethyl)-[1,2,4]triazolo[4,3-a]pyridine]

- GTPγS - hmGluR2 PAM Emax ([1]; listed as 2b): 295.62%
- EC50 [1]: 9.77 nM
Compound: CCOCc1nnc2c(C(F)(F)F)c(C3CCN(c4ncc(Cl)c(OCC)n4)C3)ccn12 (single isomer, unassigned) [Co. No. 2b, 7-[(3*S)-1-(5-chloro-4-ethoxy-pyrimidin-2-yl)pyrrolidin-3-yl]-3-(ethoxymethyl)-8-(trifluoromethyl)-[1,2,4]triazolo[4,3-a]pyridine]
- ED50 ([2]; route PO): 20 mg/kg

- Emax [1]: 234%
- EC50 [1]: 5.89 nM
Compound: CCOc1nc(N2CCC(c3ccn4c(CC5CC5)nnc4c3C(F)(F)F)C2)ncc1Cl (stereo not shown) [Co. No. 1, 7-[1-(5-chloro-4-ethoxy-pyrimidin-2-yl)pyrrolidin-3-yl]-3-(cyclopropylmethyl)-8-(trifluoromethyl)-[1,2,4]triazolo[4,3-a]pyridine]

- Emax [1]: 345%
- EC50 [1]: 17 nM
- melting point: 153.86 °C
Compound: CCOCc1nnc2c(C(F)(F)F)c(C3CCN(c4ncc(Cl)c(OCC)n4)C3)ccn12 (stereo not shown) [Co. No. 2, 7-[1-(5-chloro-4-ethoxy-pyrimidin-2-yl)pyrrolidin-3-yl]-3-(ethoxymethyl)-8-(trifluoromethyl)-[1,2,4]triazolo[4,3-a]pyridine]

Compound: CCCCn1ccc(N2CCC(c3ccccc3)CC2)c(Cl)c1=O [JNJ-40411813/ADX71149]
- efficacy on several secondary outcome measures of both depression and anxiety [3]: showed efficacy signals
- efficacy on the primary outcome measure [3]: no efficacy signal was detected
- effect on craving and smoking cessation-induced deficits in attention and episodic memory [4]: reduce craving and improve smoking cessation-induced deficits in attention and episodic memory
- efficacy in S-ketamine-induced negative symptoms [5]: showed an efficacy signal
